Assay results published in patent publication US20070224267A1, “Ambroxol for the treatment of painful conditions in the mouth and pharyngeal cavity” (priority 2002, published 2007).
Structures can show the parent of a compound that is named as a salt.

Tests used:
[1] = test system: patients with acute sore throat; assay: Clinical trial of suckable tablets containing 20 or 30 mg ambroxol hydrochloride vs placebo in acute sore throat (Example 2); type: in vivo; settings: for average SPIDnorm (±SD) after the first suckable tablet: time-weighted average pain reduction in first 3 hours, standardised to initial pain, placebo 0.38±0.28
Method: A multi-centred, prospective, placebo-controlled, randomised double-blind trial was carried out over three days' treatment with up to 6 suckable tablets containing ambroxol hydrochloride per day. Patients: 331 ambulant patients with acute uncomplicated sore throats of at least moderate severity but with no bacterial pharyngitis were investigated. Treatments: Double-blind treatment with up to 6 suckable tablets per day containing either 20 mg or 30 mg of ambroxol hydrochloride or constituting a placebo (suckable tablet without the active substance, but again with a marked flavour of peppermint similar to the test substance). End points: The average pain reduction, weighted for time, during the first 3 hours after administration of the first suckable tablet, standardised to the degree of initial pain (SPIDnorm); moreover, the assessment of effectiveness and tolerance by the patient at the end of each day of treatment.

[2] = test system: patients with acute sore throat; assay: Clinical trial of suckable tablets containing 20 mg ambroxol hydrochloride vs placebo in acute sore throat (Example 1); type: in vivo
Method: A multi-centred, prospective, placebo-controlled, randomised double-blind trial was carried out over two days' treatment with up to 6 suckable tablets containing ambroxol hydrochloride per day. Patients: 218 patients (97 men, 121 women) with an average age of 39.4±15 years (range from 17-81 years) were recruited; of these 215 patients were treated: 107 with 20 mg of ambroxol and 108 with placebo. 26 patients stopped the treatment early (13 in each treatment group). The intent-to-treat (ITT) population consisted of 208 patients (105 treated with ambroxol and 103 given the placebo); 196 patients formed the per-protocol (PP) population (97 with test substance and 99 with placebo). For the drug safety analysis, all the patients treated were studied. Treatments: Double-blind treatment with up to 6 suckable tablets per day, which either contained 20 mg of ambroxol or constituted a placebo (suckable tablet without the active substance, but with a marked flavour of peppermint similar to the test substance). End points: The average pain reduction, weighted for time, during the first 3 hours after administration of the first suckable tablet, standardised to the degree of initial pain (SPIDnorm); moreover, the assessment of effectiveness and tolerance by the patient at the end of each day of treatment.

[3] = up to 6 suckable tablets of 20 mg per day, two days, vs placebo

Structure (SMILES): Nc1c(Br)cc(Br)cc1CN[C@H]1CC[C@H](O)CC1 [ambroxol hydrochloride, trans-4-[(2-amino-3,5-dibromobenzyl)amino]cyclohexano hydrochloride]
- average SPIDnorm (±SD) after the first suckable tablet ([1]; 20 mg suckable tablet): 0.53±0.28
- average SPIDnorm (±SD) after the first suckable tablet ([1]; 30 mg suckable tablet): 0.50±0.30
- assessment of effectiveness by the patient at the end of each day of treatment ([1]; up to 6 suckable tablets of 20 or 30 mg per day, three days, vs placebo): statistically significantly larger number of patients reported a higher degree of effectiveness
- tolerance ([1]; up to 6 suckable tablets per day, three days, all dosages (20 and 30 mg), vs placebo): tolerated just as well as the placebo
- average SPIDnorm (±SD) after the first suckable tablet ([2]; 20 mg suckable tablet, time-weighted average pain reduction in first 3 hours, standardised to initial pain, placebo 0.28±0.25): 0.39±0.27
- assessment of effectiveness by the patient at the end of each day of treatment [2, 3]: statistically significantly larger number of patients reported a higher degree of effectiveness
- tolerance [2, 3]: tolerated just as well as the placebo
